Reference: PubChem BioAssay (NCI)
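Following 48 hours of exposure in 96-well plates, responses at five concentrations were used to interpolate endpoints linearly. GI50 = concentration required for 50% inhibition of growth. TGI: concentration producing complete growth inhibition.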

Assays:
Assay in all cases: growth of human tumour cells (NCI), 48 h
HCT-116 colon = test system: HCT-116 colon
MOLT-4 leukemia = test system: MOLT-4 leukemia
RPMI-8226 leukemia = test system: RPMI-8226 leukemia
IGROV1 ovarian = test system: IGROV1 ovarian
SNB-75 CNS = test system: SNB-75 CNS
MCF7 breast = test system: MCF7 breast
NCI-H522 lung = test system: NCI-H522 lung
SNB-19 CNS = test system: SNB-19 CNS
OVCAR-5 ovarian = test system: OVCAR-5 ovarian
HS 578T breast = test system: HS 578T breast

Compound | GI50 (HCT-116 colon) [µM] | TGI (HCT-116 colon) [µM] | GI50 (MOLT-4 leukemia) [µM] | TGI (MOLT-4 leukemia) [µM] | GI50 (RPMI-8226 leukemia) [µM] | TGI (RPMI-8226 leukemia) [µM] | GI50 (IGROV1 ovarian) [µM] | TGI (IGROV1 ovarian) [µM] | TGI (SNB-75 CNS) [µM] | TGI (MCF7 breast) [µM] | TGI (NCI-H522 lung) [µM] | TGI (SNB-19 CNS) [µM] | TGI (OVCAR-5 ovarian) [µM] | TGI (HS 578T breast) [µM]
NCCCn1c2c(c3ccc([N+](=O)[O-])cc3c1=O)C(=O)c1cc3c(cc1-2)OCO3 | > 100 | > 100 | < 0.01 | > 100 | < 0.017 | 2.14 | 0.478 | > 100 |  |  |  |  |  | 
C=C1c2nc3ccccc3n2C=C(c2ccc(Cl)cc2)N1c1ccccc1 |  | 33.7 |  | > 100 |  | > 100 |  | 22.1 | 15.9 | 25.7 | 18.5 | 19.6 | > 100 | 
NCCCCNCCCN |  | > 100 |  | > 100 |  |  |  | > 100 | > 100 | > 100 | > 100 | > 100 | > 100 | 
O=C(/C=C/c1cccs1)c1ccsc1 |  |  |  | 40.6 |  | 45.4 |  | 73.6 | 89 | > 100 |  | 50.8 | > 100 | 
Sc1nnc(-c2ccccc2Nc2ccccc2-c2nnc(S)n2-c2ccccc2)n1-c1ccccc1 |  | > 100 |  | 78.9 |  | 48 |  | 42.2 | 90.8 | > 100 | 81.8 | > 100 | > 100 | 
CCN(CC)C(=O)c1c(N2CCOCC2)cc(N(CC)CC)oc1=O |  | > 100 |  | > 100 |  | > 100 |  | > 100 | > 100 |  | > 100 | > 100 |  | 
Oc1[nH]c2ccccc2c1N=NC(=S)N1CCCCCC1 |  | 1.9 |  | 3.1 |  | 4.15 |  | 2.35 | 4.34 | 10.9 | 12.6 | 15.4 | 12.4 | 
CCN(CC)C(=S)SNCCc1ccc(S(N)(=O)=O)cc1 |  | 26.4 |  |  |  | 38.6 |  |  | 27 |  | 4.63 | 50.9 | 30.4 | 53.1
CC(=O)Oc1ccc(OC(Oc2ccccc2)c2ccccc2)cc1 (centres undefined) |  | 59 |  | > 100 |  |  |  | > 100 | 64.4 | 82.2 | 96.4 | 77.5 | > 100 | 
CC(=O)OCC1OC(OCC2OC(N3C(=S)N[C@H]([C@@H](O)[C@H](O)[C@H](O)CO)[C@H]3O)C(OC(C)=O)C(OC(C)=O)C2OC(C)=O)C(OC(C)=O)C(OC(C)=O)C1OC(C)=O (some centres undefined) |  | > 100 |  | > 100 |  | > 100 |  |  |  | > 100 | > 100 | > 100 | > 100 | 
Brc1cccc(C2(CCCC3(c4cccc(Br)n4)OCCO3)OCCO2)n1 |  | > 100 |  | > 100 |  | > 100 |  | > 100 | 84 | > 100 | > 100 | > 100 | > 100 | 
ClCc1c(-c2ccccc2)nn(-c2ccccc2)c1CCl |  | 25.1 |  |  |  | 7.86 |  | 42.9 | 16.7 | 23.5 | 0.416 | 43 | 35 | 
O=C(c1ccc(Cl)cc1)N(C(=S)N1CCN(c2ccccn2)CC1)c1ccccc1 |  | > 100 |  | > 100 |  | > 100 |  | > 100 | > 100 |  | > 100 | > 100 | > 100 | 
CCCCNC(=S)/N=C/c1c(O)c2ccccc2oc1=O |  | > 100 |  | > 100 |  |  |  | > 100 | > 100 | > 100 |  | > 100 | > 100 | 
Cc1ccc(NC(=O)c2cccc([N+](=O)[O-])c2O)c(C)c1 |  | > 100 |  | > 100 |  | 92.7 |  | > 100 | > 100 |  | 70.1 | > 100 | > 100 | 
c1ccc([C@H]2CN3CCSC3=N2)cc1 |  | > 100 |  | > 100 |  |  |  | > 100 | > 100 | > 100 | > 100 | > 100 | > 100 | 
c1ccc(C(=NNc2nc3ccccc3[nH]2)c2ccccn2)nc1 |  | 10.2 |  | 0.062 |  | 1.02 |  | 2.64 |  |  | 0.089 | > 100 | 5.18 | > 100
CCOC(=O)N(CC)c1c(C(F)(F)F)cc(-c2ccccc2)[nH]c1=O |  | > 100 |  | 70.1 |  | 39.3 |  | > 100 |  | > 100 |  | > 100 | > 100 | 
O=c1c2cc(-c3ccccc3)cnc2sn1-c1ccc([N+](=O)[O-])cc1 |  | > 100 |  | > 100 |  | > 100 |  | > 100 | > 100 | > 100 | 75.4 | > 100 | > 100 | 
CC(=O)c1ccc(NC(=O)/C(=N\NC(N)=O)C(C#N)CC(C)(C)C=O)cc1 (centres undefined) |  | > 100 |  | > 100 |  | > 100 |  | > 100 | > 100 |  | > 100 | > 100 | > 100 | 
